Data published in article PMC11375437, “Selective labelling of GBA2 in cells with fluorescent β-D-arabinofuranosyl cyclitol aziridines” (Chemical Science, 2024).

Target: T1, GBA2 (Homo sapiens, UniProt Q9HCG7)
T1 sequence (Q9HCG7 1-927): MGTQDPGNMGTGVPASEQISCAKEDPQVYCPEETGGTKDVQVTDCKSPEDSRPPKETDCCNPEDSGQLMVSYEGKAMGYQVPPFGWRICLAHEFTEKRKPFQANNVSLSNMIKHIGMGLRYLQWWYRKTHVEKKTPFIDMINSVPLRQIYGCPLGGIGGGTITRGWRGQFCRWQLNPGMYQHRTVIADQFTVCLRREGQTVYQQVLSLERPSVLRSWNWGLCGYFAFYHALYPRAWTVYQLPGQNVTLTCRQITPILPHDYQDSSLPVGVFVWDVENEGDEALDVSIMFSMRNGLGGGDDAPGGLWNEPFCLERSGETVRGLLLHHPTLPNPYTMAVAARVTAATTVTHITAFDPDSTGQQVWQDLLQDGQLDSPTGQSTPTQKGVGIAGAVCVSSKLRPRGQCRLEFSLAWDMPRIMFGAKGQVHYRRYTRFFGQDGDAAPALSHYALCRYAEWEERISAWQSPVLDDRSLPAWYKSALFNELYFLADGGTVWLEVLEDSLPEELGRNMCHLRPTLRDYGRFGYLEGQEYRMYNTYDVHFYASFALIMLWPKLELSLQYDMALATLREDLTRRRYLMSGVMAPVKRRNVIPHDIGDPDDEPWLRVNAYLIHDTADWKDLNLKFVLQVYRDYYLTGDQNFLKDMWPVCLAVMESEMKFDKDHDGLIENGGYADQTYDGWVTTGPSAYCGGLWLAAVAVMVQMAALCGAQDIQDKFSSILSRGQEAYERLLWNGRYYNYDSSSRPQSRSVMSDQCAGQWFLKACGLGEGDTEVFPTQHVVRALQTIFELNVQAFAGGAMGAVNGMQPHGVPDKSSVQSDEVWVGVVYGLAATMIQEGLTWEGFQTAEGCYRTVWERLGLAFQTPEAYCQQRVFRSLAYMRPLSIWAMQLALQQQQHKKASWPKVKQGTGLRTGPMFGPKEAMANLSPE
Test: Labelling kinetics of ABP 4 on GBA2 by SDS-PAGE
Assay type: biochemical
Design: expressed in transfected cells; host or cells: HEK293T GBA1/GBA2 KO (CRISPR/Cas9), GBA2 overexpressed
Conditions: HEK293T GBA1/2 KO, GBA2 OE lysate; pH 5.8; 37 °C
Method: To this end, lysates of HEK293T cells containing all β-glucosidases (endogenous GBA1 with overexpressed GBA2 and GBA3) were treated with ABPs 3, 4, 5 or 7, followed by protein separation by SDS-PAGE and fluorescence scanning of the wet gel slabs. […] In contrast, the β-D-Araf aziridine ABPs 3 and 4 selectively labelled GBA2 at a concentration of 100 nM, while Cy5 tagged ABP 5 did so at 500 nM. The GBA2 selectivity of β-D-Araf cyclitol aziridines 3, 4 and 5 was confirmed in a mixture of a lysate of overexpressed GBA2 cells spiked with 3 ng rhGBA1 (Fig. 2C and ESI Fig. S3 ^†). […] Therefore, only a combined inactivation rate constant (kinact) and binding constant (KI) ratio (kinact/KI) could be measured. […] Importantly, no labelling of GBA1 or GBA3 was detected under varying pH and time conditions (ESI Fig. S4-2 ^†).
Figure S4-1. […] A) Percentage of GBA2 labelling by ABP 4 (left graphs), data was quantified from three independent sets of fluorescent gels under the depicted conditions. […]
of inhibitors diluted in McIlvaine buffer (150 mM, pH 5.2) at 37 °C for 30 min or 3 h. […] After stopping the enzyme reaction with 200 μL 1 M NaOH-glycine (pH 10.3), 4-methylumbelliferone fluorescence was measured with a fluorimeter LS55 (Perkin Elmer, Waltham, MA, USA) with λEX 366 nm and λEM 445 nm. […]

COc1ccc(C2=[N+]3C(=C(CCCCc4cn(CCCCCCCCN5[C@@H]6[C@H](CO)[C@@H](O)[C@H](O)[C@@H]65)nn4)c4ccc(-c5ccc(OC)cc5)n4[B-]3(F)F)C=C2)cc1 (stereo partly shown) [ABP 4]
kinact/KI: 19200 M⁻¹ s⁻¹
